Columns and labels:
[1] = tested on: H3K9 ac; assay: Epigenetic selectivity profile; assay type: biochemical; parameters: dose or concentration left out as unconfirmed
Procedure: (§1) […]. MAO-A inhibition at 10 μM was 37%, in line with internal data.

[2] = biological target: T1, AT2 (h) (agonist radioligand) (Homo sapiens, UniProt P50052); assay: CEREP Diversity Panel; assay type: binding
T1 construct: purchased CEREP (Eurofins Cerep)
Procedure: as §1

[3] = biological target: T2, D3 (h) (antagonist radioligand) (Homo sapiens, UniProt P35462); assay: CEREP Diversity Panel; assay type: binding
T2 construct: purchased CEREP (Eurofins Cerep)
T2 sequence (P35462 whole entry): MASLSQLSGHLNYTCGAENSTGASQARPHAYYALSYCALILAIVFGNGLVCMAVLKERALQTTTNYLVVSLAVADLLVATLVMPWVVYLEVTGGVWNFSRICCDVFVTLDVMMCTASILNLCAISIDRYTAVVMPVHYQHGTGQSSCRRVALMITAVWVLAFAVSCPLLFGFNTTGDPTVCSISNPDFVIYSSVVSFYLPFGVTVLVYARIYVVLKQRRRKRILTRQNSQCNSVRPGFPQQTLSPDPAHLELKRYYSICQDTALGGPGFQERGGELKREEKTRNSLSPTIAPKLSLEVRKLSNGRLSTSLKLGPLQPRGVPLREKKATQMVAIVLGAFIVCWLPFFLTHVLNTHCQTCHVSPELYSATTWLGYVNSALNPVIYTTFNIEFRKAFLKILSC
Procedure: as §1

[4] = biological target: T3, CRF1 (h) (agonist radioligand) (Homo sapiens, UniProt P34998); assay: CEREP Diversity Panel; assay type: binding
T3 construct: purchased CEREP (Eurofins Cerep)
Procedure: as §1

[5] = biological target: T4, CB2 (h) (agonist radioligand) (Homo sapiens, UniProt P34972); assay: CEREP Diversity Panel; assay type: binding
T4 construct: purchased CEREP (Eurofins Cerep)
Procedure: as §1

[6] = biological target: T5, H3 (h) (agonist radioligand) (Homo sapiens, UniProt Q9Y5N1); assay: CEREP Diversity Panel; assay type: binding
T5 construct: purchased CEREP (Eurofins Cerep)
Procedure: as §1

[7] = biological target: T6, V2 (h) (agonist radioligand) (Homo sapiens, UniProt P30518); assay: CEREP Diversity Panel; assay type: binding
T6 construct: purchased CEREP (Eurofins Cerep)
T6 sequence (P30518 whole entry): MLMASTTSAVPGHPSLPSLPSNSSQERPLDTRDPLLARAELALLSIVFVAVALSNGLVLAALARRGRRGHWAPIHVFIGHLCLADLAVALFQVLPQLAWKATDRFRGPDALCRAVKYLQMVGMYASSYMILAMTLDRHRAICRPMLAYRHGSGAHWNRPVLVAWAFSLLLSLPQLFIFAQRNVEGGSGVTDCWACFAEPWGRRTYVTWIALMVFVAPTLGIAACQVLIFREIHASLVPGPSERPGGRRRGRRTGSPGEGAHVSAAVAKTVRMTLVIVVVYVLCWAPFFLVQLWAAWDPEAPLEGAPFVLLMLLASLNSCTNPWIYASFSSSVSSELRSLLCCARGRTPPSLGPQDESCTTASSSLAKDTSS
Procedure: as §1

[8] = biological target: T7, 5-HT transporter (h) (antagonist radioligand) (Homo sapiens, UniProt P31645); assay: CEREP Diversity Panel; assay type: binding
T7 construct: purchased CEREP (Eurofins Cerep)
T7 sequence (P31645 whole entry): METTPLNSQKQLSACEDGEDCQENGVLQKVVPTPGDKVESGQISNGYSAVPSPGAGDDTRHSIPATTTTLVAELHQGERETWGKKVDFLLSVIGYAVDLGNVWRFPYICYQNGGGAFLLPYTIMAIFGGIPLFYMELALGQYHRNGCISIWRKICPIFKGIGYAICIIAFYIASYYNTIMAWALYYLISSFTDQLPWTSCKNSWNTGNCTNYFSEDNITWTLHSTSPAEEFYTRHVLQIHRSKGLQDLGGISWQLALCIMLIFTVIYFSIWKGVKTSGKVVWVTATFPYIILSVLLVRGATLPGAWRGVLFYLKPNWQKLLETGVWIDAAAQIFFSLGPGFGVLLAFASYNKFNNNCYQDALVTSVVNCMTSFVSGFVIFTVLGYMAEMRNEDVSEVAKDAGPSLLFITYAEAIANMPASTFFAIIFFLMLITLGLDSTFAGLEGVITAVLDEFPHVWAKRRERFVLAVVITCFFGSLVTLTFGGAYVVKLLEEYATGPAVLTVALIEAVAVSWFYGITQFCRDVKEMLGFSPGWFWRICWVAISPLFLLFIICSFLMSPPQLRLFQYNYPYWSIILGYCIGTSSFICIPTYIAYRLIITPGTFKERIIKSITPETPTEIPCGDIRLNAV
Procedure: as §1

[9] = biological target: T8, B1 (h) (agonist radioligand) (Homo sapiens, UniProt P46663); assay: CEREP Diversity Panel; assay type: binding
T8 construct: purchased CEREP (Eurofins Cerep)
T8 sequence (P46663 whole entry): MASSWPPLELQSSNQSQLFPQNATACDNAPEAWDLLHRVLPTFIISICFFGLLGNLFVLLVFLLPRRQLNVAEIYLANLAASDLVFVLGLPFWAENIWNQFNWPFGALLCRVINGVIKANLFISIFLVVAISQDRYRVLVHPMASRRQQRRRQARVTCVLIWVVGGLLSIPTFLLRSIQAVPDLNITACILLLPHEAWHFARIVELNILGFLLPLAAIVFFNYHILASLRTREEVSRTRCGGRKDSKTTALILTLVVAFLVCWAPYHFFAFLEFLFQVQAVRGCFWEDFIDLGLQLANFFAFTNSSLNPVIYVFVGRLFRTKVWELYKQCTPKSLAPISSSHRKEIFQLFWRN
Procedure: as §1

[10] = biological target: T9, B2 (h) (agonist radioligand) (Homo sapiens, UniProt P30411); assay: CEREP Diversity Panel; assay type: binding
T9 construct: purchased CEREP (Eurofins Cerep)
Procedure: as §1

[11] = biological target: T10, D2S (h) (antagonist radioligand) (Homo sapiens, UniProt P14416); assay: CEREP Diversity Panel; assay type: binding
T10 construct: purchased CEREP (Eurofins Cerep)
Procedure: as §1

[12] = biological target: T11, V1a (h) (agonist radioligand) (Homo sapiens, UniProt P37288); assay: CEREP Diversity Panel; assay type: binding
T11 construct: purchased CEREP (Eurofins Cerep)
Procedure: as §1

[13] = biological target: T12, MC4 (h) (agonist radioligand) (Homo sapiens, UniProt P32245); assay: CEREP Diversity Panel; assay type: binding
T12 construct: purchased CEREP (Eurofins Cerep)
Procedure: as §1

[14] = biological target: T13, A1 (h) (antagonist radioligand) (Homo sapiens, UniProt P30542); assay: CEREP Diversity Panel; assay type: binding
T13 construct: purchased CEREP (Eurofins Cerep)
T13 sequence (P30542 whole entry): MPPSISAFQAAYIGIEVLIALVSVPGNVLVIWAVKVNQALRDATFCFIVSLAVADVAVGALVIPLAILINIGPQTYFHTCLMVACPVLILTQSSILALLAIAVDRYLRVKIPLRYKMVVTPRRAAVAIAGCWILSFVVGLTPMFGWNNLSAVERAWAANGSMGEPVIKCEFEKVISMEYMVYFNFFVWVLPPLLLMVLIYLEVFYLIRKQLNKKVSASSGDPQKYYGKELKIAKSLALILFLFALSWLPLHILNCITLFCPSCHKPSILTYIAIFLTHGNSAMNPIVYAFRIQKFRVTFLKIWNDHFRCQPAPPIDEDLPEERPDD
Procedure: as §1

[15] = biological target: T14, choline transporter (CHT1) (h) (antagonist radioligand) (Homo sapiens, UniProt Q9GZV3); assay: CEREP Diversity Panel; assay type: binding
T14 construct: purchased CEREP (Eurofins Cerep)
Procedure: as §1

[16] = biological target: T15, ETB (h) (agonist radioligand) (Homo sapiens, UniProt P24530); assay: CEREP Diversity Panel; assay type: binding
T15 construct: purchased CEREP (Eurofins Cerep)
Procedure: as §1

[17] = biological target: T16, CCK2 (CCKB) (h) (agonist radioligand) (Homo sapiens, UniProt P32239); assay: CEREP Diversity Panel; assay type: binding
T16 construct: purchased CEREP (Eurofins Cerep)
Procedure: as §1

[18] = biological target: T17, EP2 (h) (agonist radioligand) (Homo sapiens, UniProt P43116); assay: CEREP Diversity Panel; assay type: binding
T17 construct: purchased CEREP (Eurofins Cerep)
Procedure: as §1

[19] = biological target: T18, N neuronal a 4b 2 (h) (agonist radioligand) (Homo sapiens, UniProt P17787+P43681); assay: CEREP Diversity Panel; assay type: binding
T18 construct: purchased CEREP (Eurofins Cerep)
Procedure: as §1

[20] = biological target: T19, PPARg (h) (agonist radioligand) (Homo sapiens, UniProt P37231); assay: CEREP Diversity Panel; assay type: binding
T19 construct: purchased CEREP (Eurofins Cerep)
Procedure: as §1

[21] = biological target: T20, PAR1 (h) (agonist radioligand) (Homo sapiens, UniProt P25116); assay: CEREP Diversity Panel; assay type: binding
T20 construct: purchased CEREP (Eurofins Cerep)
Procedure: as §1

[22] = biological target: T21, A3 (h) (agonist radioligand) (Homo sapiens, UniProt P0DMS8); assay: CEREP Diversity Panel; assay type: binding
T21 construct: purchased CEREP (Eurofins Cerep)
Procedure: as §1

[23] = biological target: T22, CCK1 (CCKA) (h) (agonist radioligand) (Homo sapiens, UniProt P32238); assay: CEREP Diversity Panel; assay type: binding
T22 construct: purchased CEREP (Eurofins Cerep)
Procedure: as §1

[24] = biological target: T23, CysLT1 (LTD4) (h) (agonist radioligand) (Homo sapiens, UniProt Q9Y271); assay: CEREP Diversity Panel; assay type: binding
T23 construct: purchased CEREP (Eurofins Cerep)
Procedure: as §1

[25] = biological target: T24, norepinephrine transporter (h) (antagonist radioligand) (Homo sapiens, UniProt P23975); assay: CEREP Diversity Panel; assay type: binding
T24 construct: purchased CEREP (Eurofins Cerep)
Procedure: as §1

[26] = biological target: T25, D4.4 (h) (antagonist radioligand) (Homo sapiens, UniProt P21917); assay: CEREP Diversity Panel; assay type: binding
T25 construct: purchased CEREP (Eurofins Cerep)
T25 sequence (P21917 whole entry): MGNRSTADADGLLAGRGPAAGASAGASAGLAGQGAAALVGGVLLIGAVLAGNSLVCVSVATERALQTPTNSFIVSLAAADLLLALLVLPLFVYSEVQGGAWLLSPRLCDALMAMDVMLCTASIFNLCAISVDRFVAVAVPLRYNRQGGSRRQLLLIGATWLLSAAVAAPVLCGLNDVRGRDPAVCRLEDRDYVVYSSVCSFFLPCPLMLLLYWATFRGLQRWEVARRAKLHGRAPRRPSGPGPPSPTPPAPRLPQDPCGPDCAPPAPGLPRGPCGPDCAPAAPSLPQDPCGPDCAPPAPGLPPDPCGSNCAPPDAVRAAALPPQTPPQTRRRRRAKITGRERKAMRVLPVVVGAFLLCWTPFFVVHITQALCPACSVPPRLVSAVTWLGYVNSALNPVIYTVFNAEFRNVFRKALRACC
Procedure: as §1

[27] = biological target: T26, ETA (h) (agonist radioligand) (Homo sapiens, UniProt P25101); assay: CEREP Diversity Panel; assay type: binding
T26 construct: purchased CEREP (Eurofins Cerep)
Procedure: as §1

[28] = biological target: T27, H2 (h) (antagonist radioligand) (Homo sapiens, UniProt P25021); assay: CEREP Diversity Panel; assay type: binding
T27 construct: purchased CEREP (Eurofins Cerep)
Procedure: as §1

[29] = biological target: T28, beta 2 (h) (agonist radioligand) (Homo sapiens, UniProt P07550); assay: CEREP Diversity Panel; assay type: binding
T28 construct: purchased CEREP (Eurofins Cerep)
Procedure: as §1

[30] = biological target: T29, NK3 (h) (antagonist radioligand) (Homo sapiens, UniProt P29371); assay: CEREP Diversity Panel; assay type: binding
T29 construct: purchased CEREP (Eurofins Cerep)
T29 sequence (P29371 whole entry): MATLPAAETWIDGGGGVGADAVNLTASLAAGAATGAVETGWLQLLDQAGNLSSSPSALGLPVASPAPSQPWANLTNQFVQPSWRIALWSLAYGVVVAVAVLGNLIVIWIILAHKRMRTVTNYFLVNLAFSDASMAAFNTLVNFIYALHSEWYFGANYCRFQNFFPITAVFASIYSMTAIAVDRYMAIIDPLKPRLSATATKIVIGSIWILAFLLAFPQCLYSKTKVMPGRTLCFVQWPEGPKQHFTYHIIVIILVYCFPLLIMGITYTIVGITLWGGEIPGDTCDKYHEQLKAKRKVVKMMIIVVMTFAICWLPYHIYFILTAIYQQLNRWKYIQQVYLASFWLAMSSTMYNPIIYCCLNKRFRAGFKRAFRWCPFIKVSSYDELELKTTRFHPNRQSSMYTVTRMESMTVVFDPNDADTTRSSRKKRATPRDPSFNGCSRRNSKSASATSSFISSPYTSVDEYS
Procedure: as §1

[31] = biological target: T30, NK2 (h) (agonist radioligand) (Homo sapiens, UniProt P21452); assay: CEREP Diversity Panel; assay type: binding
T30 construct: purchased CEREP (Eurofins Cerep)
Procedure: as §1

[32] = biological target: T31, BLT1 (LTB4) (h) (agonist radioligand) (Homo sapiens, UniProt Q15722); assay: CEREP Diversity Panel; assay type: binding
T31 construct: purchased CEREP (Eurofins Cerep)
T31 sequence (Q15722 whole entry): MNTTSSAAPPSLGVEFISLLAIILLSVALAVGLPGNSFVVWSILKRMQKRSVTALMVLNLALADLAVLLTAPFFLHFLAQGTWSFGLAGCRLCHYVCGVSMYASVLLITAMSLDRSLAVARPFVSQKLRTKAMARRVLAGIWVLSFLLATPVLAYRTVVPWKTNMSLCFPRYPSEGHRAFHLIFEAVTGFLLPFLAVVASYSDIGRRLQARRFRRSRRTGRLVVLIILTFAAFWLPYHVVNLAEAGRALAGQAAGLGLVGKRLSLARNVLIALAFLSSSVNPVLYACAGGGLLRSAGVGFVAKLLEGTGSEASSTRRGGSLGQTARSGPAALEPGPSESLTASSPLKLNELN
Procedure: as §1

[33] = biological target: T32, H1 (h) (antagonist radioligand) (Homo sapiens, UniProt P35367); assay: CEREP Diversity Panel; assay type: binding
T32 construct: purchased CEREP (Eurofins Cerep)
Procedure: as §1

[34] = biological target: T33, PR (h) (agonist radioligand) (Homo sapiens, UniProt P06401); assay: CEREP Diversity Panel; assay type: binding
T33 construct: purchased CEREP (Eurofins Cerep)
T33 sequence (P06401 whole entry): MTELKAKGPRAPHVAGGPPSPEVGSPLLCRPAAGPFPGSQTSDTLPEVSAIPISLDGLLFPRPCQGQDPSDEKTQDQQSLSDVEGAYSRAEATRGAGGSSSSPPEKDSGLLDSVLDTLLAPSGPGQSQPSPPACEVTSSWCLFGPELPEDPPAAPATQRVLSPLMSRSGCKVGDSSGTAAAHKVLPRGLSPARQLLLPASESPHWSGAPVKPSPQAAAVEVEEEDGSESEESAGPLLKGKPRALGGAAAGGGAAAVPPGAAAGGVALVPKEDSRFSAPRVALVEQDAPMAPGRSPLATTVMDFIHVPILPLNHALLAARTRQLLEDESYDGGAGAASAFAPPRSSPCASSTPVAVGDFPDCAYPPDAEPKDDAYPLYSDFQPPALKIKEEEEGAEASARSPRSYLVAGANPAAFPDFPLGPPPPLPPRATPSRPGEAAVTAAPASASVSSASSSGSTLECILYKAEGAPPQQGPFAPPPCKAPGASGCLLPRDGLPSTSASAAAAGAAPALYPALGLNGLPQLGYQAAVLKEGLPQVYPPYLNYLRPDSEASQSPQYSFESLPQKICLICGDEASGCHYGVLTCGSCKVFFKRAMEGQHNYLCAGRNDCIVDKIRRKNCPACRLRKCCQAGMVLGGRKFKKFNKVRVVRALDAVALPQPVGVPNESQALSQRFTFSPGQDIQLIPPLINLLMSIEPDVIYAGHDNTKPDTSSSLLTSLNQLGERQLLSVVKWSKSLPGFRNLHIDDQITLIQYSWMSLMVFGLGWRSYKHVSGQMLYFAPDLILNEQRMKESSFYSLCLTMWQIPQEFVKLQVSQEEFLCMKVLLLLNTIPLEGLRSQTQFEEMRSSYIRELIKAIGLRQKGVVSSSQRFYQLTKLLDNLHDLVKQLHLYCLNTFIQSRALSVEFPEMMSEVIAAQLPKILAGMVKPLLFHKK
Procedure: as §1

[35] = biological target: T34, NOP (ORL1) (h) (agonist radioligand) (Homo sapiens, UniProt P41146); assay: CEREP Diversity Panel; assay type: binding
T34 construct: purchased CEREP (Eurofins Cerep)
Procedure: as §1

[36] = biological target: T35, D1 (h) (antagonist radioligand) (Homo sapiens, UniProt P21728); assay: CEREP Diversity Panel; assay type: binding
T35 construct: purchased CEREP (Eurofins Cerep)
T35 sequence (P21728 whole entry): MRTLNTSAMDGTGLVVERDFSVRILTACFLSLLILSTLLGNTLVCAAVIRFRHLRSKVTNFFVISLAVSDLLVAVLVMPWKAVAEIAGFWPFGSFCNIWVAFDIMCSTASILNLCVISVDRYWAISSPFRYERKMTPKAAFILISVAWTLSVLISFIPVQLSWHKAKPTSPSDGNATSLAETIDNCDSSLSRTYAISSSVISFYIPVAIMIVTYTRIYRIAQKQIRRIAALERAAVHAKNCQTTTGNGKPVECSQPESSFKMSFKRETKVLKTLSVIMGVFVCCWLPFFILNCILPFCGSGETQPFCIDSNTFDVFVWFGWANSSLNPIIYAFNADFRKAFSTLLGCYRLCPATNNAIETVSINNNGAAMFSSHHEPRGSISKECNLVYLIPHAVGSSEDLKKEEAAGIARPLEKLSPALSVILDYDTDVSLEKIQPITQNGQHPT
Procedure: as §1

[37] = tested on: M (non-selective) (antagonist radioligand); assay: CEREP Diversity Panel; assay type: binding; parameters: % inhibition: dose or concentration left out as unconfirmed
Procedure: as §1

[38] = tested on: I2 (antagonist radioligand); assay: CEREP Diversity Panel; assay type: binding; parameters: % inhibition: dose or concentration left out as unconfirmed
Procedure: as §1

In the case of `Nc1nnc(CN[C@@H]2C[C@H]2c2ccc(OCc3ccccc3)cc2)o1` [ORY-2001, vafidemstat], the “% inhibition” value [1] is reported as -5%, the inhibition at 10 µM [2] is reported as -6% and the inhibition at 10 µM [3] is reported as 8%. The inhibition at 10 µM [4] was 18%, the inhibition at 10 µM [5] was 14% and the inhibition at 10 µM [6] was -1%. For the same molecule, the inhibition at 10 µM [7] was -12%, the inhibition at 10 µM [8] was 2% and the inhibition at 10 µM [9] was -1%. It also gave an inhibition at 10 µM [10] of -5%, an inhibition at 10 µM [11] of -8% and an inhibition at 10 µM [12] of 1%. It also gave an inhibition at 10 µM [13] of 7%, an inhibition at 10 µM [14] of 0% and an inhibition at 10 µM [15] of -2%. For the same molecule, the inhibition at 10 µM [16] was -8%, the inhibition at 10 µM [17] was -15% and the inhibition at 10 µM [18] was 18%. The inhibition at 10 µM [19] was -3%, the inhibition at 10 µM [20] was 4% and the inhibition at 10 µM [21] was -2%. It also gave an inhibition at 10 µM [22] of -4%, an inhibition at 10 µM [23] of -2% and an inhibition at 10 µM [24] of 4%. The inhibition at 10 µM [25] was 26%, the inhibition at 10 µM [26] was 9% and the inhibition at 10 µM [27] was -23%. It also gave an inhibition at 10 µM [28] of -3%, an inhibition at 10 µM [29] of 5% and an inhibition at 10 µM [30] of 2%. The inhibition at 10 µM [31] was 2%, the inhibition at 10 µM [32] was 33% and the inhibition at 10 µM [33] was -9%. The inhibition at 10 µM [34] was -11%, the inhibition at 10 µM [35] was 0% and the inhibition at 10 µM [36] was -5%. For the same molecule, the “% inhibition” value [37] was 1%, the “muscarinic receptor antagonist (MRA) activity” value [37] was “not an MRA” and the “% inhibition” value [38] was 71%. The “I2 imidazoline receptor inhibition of ligand binding” value ([38]; 10 μM) was 71%.
